The values that follow come from article PMC9544403, “Schwarzinicine A inhibits transient receptor potential canonical channels and exhibits overt vasorelaxation effects” (Phytotherapy Research, 2022).

Holding throughout (type): cell-based
One assay has as its target T1, hTRPC6 (Homo sapiens, UniProt Q9Y210).
T1 construct: gene TRPC6
T1 sequence (Q9Y210 1-931): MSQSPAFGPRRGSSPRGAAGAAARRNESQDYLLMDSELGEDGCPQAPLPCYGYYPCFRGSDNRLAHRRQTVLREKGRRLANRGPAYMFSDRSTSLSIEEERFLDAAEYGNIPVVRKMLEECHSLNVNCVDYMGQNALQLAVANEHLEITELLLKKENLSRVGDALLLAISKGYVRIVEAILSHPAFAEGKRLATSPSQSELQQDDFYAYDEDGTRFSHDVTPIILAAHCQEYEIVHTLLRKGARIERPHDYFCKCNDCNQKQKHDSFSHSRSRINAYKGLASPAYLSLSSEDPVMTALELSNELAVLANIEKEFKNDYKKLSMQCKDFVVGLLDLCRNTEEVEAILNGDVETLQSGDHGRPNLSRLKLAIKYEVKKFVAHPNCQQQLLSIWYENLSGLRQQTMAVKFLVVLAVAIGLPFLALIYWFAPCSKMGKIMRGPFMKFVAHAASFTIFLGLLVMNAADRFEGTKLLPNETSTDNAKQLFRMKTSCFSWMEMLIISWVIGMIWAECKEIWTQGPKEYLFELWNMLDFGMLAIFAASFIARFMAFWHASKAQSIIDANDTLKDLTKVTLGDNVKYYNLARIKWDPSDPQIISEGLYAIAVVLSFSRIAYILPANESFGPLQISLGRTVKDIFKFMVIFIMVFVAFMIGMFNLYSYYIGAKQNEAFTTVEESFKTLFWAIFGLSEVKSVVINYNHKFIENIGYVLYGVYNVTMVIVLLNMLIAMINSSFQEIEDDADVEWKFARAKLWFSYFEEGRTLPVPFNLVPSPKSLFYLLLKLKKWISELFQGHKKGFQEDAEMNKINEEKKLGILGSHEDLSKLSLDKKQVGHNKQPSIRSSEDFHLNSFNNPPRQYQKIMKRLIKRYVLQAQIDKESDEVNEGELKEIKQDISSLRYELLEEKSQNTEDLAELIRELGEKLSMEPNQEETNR
Nature of the assay: fura-2 intracellular calcium assay, OAG-activated hTRPC6 transfected in HEK […] cells.

The target of a further assay is T2, hTRPC5 (Homo sapiens, UniProt Q9UL62).
T2 construct: gene TRPC5
T2 sequence (Q9UL62 1-973): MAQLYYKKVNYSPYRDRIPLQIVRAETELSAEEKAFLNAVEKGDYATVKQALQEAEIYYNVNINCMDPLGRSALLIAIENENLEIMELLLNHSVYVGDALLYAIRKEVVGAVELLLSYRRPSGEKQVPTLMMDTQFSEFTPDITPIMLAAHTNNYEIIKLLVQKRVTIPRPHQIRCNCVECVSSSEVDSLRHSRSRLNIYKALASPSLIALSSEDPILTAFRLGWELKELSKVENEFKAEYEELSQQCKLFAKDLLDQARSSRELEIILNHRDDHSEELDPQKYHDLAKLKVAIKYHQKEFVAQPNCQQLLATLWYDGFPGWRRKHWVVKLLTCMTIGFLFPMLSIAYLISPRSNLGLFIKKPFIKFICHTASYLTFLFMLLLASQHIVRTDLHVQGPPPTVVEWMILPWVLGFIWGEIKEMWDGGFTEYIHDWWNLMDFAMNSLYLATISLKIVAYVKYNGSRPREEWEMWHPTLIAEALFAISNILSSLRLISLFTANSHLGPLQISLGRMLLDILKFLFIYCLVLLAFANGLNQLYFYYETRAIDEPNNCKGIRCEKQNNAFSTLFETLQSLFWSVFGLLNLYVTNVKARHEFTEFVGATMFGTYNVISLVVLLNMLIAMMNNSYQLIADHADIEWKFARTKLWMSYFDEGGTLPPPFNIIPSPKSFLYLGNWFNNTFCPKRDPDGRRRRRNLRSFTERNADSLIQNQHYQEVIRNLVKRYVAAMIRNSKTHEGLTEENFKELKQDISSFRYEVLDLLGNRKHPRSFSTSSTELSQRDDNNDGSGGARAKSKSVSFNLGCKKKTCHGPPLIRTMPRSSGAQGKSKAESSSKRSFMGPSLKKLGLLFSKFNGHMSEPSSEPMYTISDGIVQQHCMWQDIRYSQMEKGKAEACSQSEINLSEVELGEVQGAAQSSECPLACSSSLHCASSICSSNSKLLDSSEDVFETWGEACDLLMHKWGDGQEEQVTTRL
Nature of the assay: fura-2 intracellular calcium assay, S1P-activated hTRPC5 overexpressed in HEK T-REx cells. The source says: fura-2 intracellular calcium assay, S1P-activated hTRPC5 overexpressed in HEK T-REx cells on hTRPC5 | S1P‐evoked calcium influx mediated by hTRPC4 and hTRPC5 were inhibited by schwarzinicine A
In general terms: Calcium flux is commonly read through the fluorescence of an indicator in the cells.

Another assay addresses T3, hTRPC3 (Homo sapiens, UniProt Q13507).
T3 construct: gene TRPC3
T3 sequence (Q13507 1-921): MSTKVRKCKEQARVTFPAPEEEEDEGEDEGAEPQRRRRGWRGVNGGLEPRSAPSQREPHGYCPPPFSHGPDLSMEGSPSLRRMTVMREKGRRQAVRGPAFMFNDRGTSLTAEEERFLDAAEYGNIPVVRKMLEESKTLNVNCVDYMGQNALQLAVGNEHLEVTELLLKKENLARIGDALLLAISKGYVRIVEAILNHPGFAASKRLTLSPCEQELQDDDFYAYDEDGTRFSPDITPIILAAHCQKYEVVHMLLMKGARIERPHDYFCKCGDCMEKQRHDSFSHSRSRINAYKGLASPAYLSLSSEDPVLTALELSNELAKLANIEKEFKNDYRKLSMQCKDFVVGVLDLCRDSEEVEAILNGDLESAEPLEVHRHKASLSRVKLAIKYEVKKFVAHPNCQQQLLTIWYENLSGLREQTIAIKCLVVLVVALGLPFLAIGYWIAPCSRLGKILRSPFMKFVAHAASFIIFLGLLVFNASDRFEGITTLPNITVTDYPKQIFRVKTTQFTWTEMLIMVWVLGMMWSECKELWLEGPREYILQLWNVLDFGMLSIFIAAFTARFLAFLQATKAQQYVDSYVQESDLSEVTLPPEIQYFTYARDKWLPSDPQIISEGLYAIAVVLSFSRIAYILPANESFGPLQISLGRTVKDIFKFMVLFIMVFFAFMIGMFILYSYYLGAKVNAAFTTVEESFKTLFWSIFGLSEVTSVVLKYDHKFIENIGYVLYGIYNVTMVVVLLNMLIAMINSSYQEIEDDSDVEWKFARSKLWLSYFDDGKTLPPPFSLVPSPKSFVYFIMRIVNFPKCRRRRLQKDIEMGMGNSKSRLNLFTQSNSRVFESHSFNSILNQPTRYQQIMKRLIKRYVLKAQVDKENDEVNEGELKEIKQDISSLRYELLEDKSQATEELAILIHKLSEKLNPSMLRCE
Nature of the assay: fura-2 intracellular calcium assay, OAG-activated hTRPC3 overexpressed in HEK T-REx cells.

In the next assay the target is T4, hTRPC4 (Homo sapiens, UniProt Q9UBN4).
T4 construct: gene TRPC4
T4 sequence (Q9UBN4 1-977): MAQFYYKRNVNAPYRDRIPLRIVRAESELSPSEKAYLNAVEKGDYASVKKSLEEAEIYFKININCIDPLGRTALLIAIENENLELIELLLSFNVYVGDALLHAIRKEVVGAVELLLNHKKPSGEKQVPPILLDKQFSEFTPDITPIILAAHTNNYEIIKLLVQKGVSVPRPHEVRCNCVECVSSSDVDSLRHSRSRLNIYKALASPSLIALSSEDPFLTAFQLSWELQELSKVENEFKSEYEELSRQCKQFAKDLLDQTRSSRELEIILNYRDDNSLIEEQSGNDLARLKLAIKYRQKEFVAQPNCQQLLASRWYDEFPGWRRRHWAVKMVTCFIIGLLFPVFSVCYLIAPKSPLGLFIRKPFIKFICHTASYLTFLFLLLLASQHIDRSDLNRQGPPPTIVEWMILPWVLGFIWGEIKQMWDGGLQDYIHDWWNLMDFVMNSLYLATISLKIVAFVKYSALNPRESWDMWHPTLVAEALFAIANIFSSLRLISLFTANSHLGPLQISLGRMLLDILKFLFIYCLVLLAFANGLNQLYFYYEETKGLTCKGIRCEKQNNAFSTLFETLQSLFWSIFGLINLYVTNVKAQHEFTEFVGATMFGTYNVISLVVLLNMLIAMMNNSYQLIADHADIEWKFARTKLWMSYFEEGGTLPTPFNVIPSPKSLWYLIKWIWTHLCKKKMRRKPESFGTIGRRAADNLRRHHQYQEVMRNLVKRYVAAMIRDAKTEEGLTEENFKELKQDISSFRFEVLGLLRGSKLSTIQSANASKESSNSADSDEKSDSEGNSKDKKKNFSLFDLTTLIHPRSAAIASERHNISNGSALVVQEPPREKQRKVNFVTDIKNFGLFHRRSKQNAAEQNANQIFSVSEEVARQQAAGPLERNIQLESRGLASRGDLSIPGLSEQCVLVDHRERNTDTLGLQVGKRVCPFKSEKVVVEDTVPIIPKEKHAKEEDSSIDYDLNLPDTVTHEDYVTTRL
Nature of the assay: fura-2 intracellular calcium assay, S1P-activated hTRPC4 overexpressed in HEK T-REx cells.

What is called IC50 is the concentration that gives 50% inhibition.

As to `COc1ccc(CCNC(CCc2ccc(OC)c(OC)c2)Cc2ccc(OC)c(OC)c2)cc1OC` (racemic) [schwarzinicine A, N‐(3,4‐dimethoxyphenethyl)‐1,4‐bis(3,4‐dimethoxyphenyl)butan‐2‐amine], the IC50 came out at 7 µM at hTRPC6, 19 µM at hTRPC5, 3 µM at hTRPC3 and 17 µM on hTRPC4.
